Laboratory results published in patent US20240374600A1, “METHODS AND COMPOSITIONS FOR TREATING CANCER” (Onconova Therapeutics, Inc., priority 2021, published 2024).
Entries after “also recorded” stand apart in the source; their conditions may differ.

Legend:
[1] = Phase 1 dose-escalation study in patients with advanced cancer; type: in vivo, human
Description: The study is a phase 1 dose-escalation study of 8-cyclopentyl-2-((4-(4-methylpiperazin-1-yl)phenyl)amino)-7-oxo-7,8-dihydropyrido[2,3-d]pyrimidine-6-carbonitrile (Compound 1) in patients with advanced cancer. Patients are dosed daily in 28-day cycles with Compound 1 starting at 40 mg daily with dosages escalating 40 mg/day increments for each new cohort or only on days 1-21 of 28-day cycles. […] Adverse events reported are Grade 1 or 2 in severity and are predominantly gastrointestinal (GI) disorders.

kinases = assay: KinMap kinase inhibition profile (FIG. 1); conditions: compared to a kinase inhibitor that is not compound 1
CDK9/cyclinT1 = CDK9/cyclinT1 (Homo sapiens, UniProt P50750); assay: In vitro multi-kinase activity, IC50; type: biochemical
Source text: (§1) The study evaluates the IC50 values (in nM) of Compound 1 in comparison to FDA approved CDK 4/6 inhibitors Comparator 1, Comparator 2 and Comparator 3, which represent treatment advances for HR+ HER^2-metastatic breast cancer. IC50 value is a quantitative measure indicating the concentration needed to inhibit the listed kinase by 50%.

CDK7/cyclin H = CDK7/cyclin H (Homo sapiens, UniProt P50613); assay: In vitro multi-kinase activity, IC50; type: biochemical
Source text: as §1

CDK1/cyclin B = CDK1/cyclin B (Homo sapiens, UniProt P06493); assay: In vitro multi-kinase activity, IC50; type: biochemical
Source text: as §1

ARK 5/NUAK 1 = biological target: T1, ARK 5/NUAK 1 (Homo sapiens, UniProt O60285); assay: In vitro multi-kinase activity, IC50; type: biochemical
T1 sequence (O60285 1-661): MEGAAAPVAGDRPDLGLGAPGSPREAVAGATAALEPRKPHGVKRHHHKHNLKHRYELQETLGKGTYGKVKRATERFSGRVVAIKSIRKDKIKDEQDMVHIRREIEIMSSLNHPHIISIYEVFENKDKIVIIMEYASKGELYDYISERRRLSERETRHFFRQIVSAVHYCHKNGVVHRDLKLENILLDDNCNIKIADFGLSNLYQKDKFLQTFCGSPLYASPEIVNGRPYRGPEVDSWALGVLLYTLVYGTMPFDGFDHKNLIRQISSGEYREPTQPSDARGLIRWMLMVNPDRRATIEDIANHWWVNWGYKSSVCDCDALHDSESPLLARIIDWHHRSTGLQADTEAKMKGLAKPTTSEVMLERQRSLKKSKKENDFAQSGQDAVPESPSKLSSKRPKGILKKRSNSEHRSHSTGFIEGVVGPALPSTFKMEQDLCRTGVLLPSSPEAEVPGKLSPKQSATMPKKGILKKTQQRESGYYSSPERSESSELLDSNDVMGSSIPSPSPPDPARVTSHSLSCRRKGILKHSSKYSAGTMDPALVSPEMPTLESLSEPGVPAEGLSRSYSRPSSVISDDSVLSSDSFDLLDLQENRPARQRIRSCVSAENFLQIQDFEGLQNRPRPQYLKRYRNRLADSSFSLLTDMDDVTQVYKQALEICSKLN
Source text: as §1

CSF1R = CSF1R (Homo sapiens, UniProt P07333); assay: In vitro multi-kinase activity, IC50; type: biochemical
Source text: as §1

CDK6/cyclin D1 = CDK6/cyclin D1 (Homo sapiens, UniProt Q00534); assay: In vitro multi-kinase activity, IC50; type: biochemical
Source text: as §1

CDK2/cyclin E = CDK2/cyclin E (Homo sapiens, UniProt P24941); assay: In vitro multi-kinase activity, IC50; type: biochemical
Source text: as §1

CDK17/cyclin Y = CDK17/cyclin Y (Homo sapiens, UniProt Q00537); assay: In vitro multi-kinase activity, IC50; type: biochemical
Source text: as §1

CDK16/cyclin Y = CDK16/cyclin Y (Homo sapiens, UniProt Q00536); assay: In vitro multi-kinase activity, IC50; type: biochemical
Source text: as §1

KIT = KIT (Homo sapiens, UniProt P10721); assay: In vitro multi-kinase activity, IC50; type: biochemical
Source text: as §1

CDK4/cyclin D1 = CDK4/cyclin D1 (Homo sapiens, UniProt P11802); assay: In vitro multi-kinase activity, IC50; type: biochemical
Source text: as §1

[2] = Neutropenia in preclinical models (FIG. 2); type: in vivo; conditions: in comparison to Comparator 1

Sequence of CDK6/cyclin D1 (Q00534 whole entry): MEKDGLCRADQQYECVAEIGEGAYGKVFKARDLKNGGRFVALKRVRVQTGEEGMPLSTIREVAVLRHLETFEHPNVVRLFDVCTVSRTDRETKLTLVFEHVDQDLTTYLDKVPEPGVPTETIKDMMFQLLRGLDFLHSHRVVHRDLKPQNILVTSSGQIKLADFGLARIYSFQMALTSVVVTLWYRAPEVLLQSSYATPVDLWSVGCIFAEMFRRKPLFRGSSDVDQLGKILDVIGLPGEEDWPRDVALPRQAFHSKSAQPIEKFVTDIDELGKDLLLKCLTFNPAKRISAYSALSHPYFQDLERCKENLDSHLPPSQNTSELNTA
Sequence of CDK6/cyclin D1 (P24385 whole entry partner): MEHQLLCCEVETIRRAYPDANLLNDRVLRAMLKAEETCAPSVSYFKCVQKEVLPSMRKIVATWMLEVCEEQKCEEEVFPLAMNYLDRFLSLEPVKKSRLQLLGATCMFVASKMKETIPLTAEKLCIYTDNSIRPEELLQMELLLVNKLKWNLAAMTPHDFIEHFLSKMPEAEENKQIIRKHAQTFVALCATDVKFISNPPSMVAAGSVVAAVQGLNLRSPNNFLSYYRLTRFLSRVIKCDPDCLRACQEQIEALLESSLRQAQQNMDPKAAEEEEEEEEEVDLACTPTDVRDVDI
Sequence of CDK17/cyclin Y (Q00537 whole entry): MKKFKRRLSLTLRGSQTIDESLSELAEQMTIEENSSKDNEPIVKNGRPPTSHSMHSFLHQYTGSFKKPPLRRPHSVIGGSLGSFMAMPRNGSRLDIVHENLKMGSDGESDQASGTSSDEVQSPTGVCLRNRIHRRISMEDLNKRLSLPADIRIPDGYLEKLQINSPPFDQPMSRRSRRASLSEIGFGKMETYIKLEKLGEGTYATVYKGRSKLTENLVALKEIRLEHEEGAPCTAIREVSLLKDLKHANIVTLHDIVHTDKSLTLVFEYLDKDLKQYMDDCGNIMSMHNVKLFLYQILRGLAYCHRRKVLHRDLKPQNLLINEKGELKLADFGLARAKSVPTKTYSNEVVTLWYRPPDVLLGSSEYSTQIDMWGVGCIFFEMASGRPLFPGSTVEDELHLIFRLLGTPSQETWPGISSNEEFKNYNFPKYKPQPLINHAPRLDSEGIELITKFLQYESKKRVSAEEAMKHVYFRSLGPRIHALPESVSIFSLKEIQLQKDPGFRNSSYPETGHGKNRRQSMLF
Sequence of CDK17/cyclin Y (Q8ND76 whole entry partner): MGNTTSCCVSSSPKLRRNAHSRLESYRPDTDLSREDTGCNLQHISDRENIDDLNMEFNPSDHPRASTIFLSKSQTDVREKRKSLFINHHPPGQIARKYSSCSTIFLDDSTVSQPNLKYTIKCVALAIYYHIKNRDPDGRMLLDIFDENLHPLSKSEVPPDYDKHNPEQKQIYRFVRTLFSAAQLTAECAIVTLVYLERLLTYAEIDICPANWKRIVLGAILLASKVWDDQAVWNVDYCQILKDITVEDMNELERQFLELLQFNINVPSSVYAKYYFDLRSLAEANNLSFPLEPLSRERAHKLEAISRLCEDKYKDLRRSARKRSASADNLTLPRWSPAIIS
Sequence of KIT (P10721 26-976): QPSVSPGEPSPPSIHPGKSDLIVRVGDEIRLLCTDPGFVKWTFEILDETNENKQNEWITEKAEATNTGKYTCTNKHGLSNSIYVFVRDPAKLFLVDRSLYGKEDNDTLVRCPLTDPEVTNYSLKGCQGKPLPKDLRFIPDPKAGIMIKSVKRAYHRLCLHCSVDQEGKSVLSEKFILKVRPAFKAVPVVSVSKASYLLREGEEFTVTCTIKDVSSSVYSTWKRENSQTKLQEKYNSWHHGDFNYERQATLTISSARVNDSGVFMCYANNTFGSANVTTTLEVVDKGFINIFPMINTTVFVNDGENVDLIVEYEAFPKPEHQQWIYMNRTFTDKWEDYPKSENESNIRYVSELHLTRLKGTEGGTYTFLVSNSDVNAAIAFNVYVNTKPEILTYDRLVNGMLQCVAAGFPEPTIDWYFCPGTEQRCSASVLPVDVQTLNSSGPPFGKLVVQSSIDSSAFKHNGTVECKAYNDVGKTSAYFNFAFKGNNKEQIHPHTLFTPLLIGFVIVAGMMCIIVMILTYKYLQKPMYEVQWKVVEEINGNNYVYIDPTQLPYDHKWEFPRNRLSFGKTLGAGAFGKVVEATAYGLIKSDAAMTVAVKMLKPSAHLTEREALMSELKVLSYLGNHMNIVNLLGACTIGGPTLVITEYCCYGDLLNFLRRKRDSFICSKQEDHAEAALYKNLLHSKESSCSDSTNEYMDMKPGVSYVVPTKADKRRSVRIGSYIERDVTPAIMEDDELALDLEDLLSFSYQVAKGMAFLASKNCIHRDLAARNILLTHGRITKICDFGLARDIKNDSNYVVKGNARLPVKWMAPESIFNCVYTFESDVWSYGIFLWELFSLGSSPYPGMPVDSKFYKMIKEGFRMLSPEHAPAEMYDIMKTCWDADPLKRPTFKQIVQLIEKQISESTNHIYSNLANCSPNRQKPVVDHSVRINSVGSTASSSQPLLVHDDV
Sequence of CDK4/cyclin D1 (P11802 whole entry): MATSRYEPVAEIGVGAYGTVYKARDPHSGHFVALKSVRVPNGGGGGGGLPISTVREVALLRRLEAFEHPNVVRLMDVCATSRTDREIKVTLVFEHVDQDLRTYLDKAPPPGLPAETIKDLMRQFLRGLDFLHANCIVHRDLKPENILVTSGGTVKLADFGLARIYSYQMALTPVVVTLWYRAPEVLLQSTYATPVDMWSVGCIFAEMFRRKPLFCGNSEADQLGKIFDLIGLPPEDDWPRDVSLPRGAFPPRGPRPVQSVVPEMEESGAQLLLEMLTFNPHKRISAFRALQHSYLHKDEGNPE
Sequence of CDK4/cyclin D1 (P24385 whole entry partner): as the sequence (P24385 whole entry partner) above
Sequence of CDK1/cyclin B (P06493 whole entry): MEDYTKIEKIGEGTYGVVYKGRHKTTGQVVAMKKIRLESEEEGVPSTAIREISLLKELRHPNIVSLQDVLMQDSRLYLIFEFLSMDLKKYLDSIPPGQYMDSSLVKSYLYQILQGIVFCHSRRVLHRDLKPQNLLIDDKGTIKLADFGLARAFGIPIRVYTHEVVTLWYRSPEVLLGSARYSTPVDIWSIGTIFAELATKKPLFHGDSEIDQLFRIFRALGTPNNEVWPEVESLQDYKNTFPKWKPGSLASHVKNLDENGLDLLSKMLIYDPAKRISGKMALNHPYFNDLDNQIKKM
Sequence of CDK1/cyclin B (P14635 whole entry partner): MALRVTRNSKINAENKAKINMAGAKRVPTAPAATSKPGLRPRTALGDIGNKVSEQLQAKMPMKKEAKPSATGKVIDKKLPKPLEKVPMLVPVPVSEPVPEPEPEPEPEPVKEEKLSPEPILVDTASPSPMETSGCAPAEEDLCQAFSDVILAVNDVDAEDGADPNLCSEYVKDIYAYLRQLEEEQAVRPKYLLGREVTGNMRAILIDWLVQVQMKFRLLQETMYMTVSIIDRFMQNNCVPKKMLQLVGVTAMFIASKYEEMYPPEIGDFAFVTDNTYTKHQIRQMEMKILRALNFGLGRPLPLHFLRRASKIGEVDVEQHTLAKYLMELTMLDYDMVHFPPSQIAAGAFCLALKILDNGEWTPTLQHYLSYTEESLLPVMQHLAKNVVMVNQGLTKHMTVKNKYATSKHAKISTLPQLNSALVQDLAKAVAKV
Sequence of CSF1R (P07333 20-972): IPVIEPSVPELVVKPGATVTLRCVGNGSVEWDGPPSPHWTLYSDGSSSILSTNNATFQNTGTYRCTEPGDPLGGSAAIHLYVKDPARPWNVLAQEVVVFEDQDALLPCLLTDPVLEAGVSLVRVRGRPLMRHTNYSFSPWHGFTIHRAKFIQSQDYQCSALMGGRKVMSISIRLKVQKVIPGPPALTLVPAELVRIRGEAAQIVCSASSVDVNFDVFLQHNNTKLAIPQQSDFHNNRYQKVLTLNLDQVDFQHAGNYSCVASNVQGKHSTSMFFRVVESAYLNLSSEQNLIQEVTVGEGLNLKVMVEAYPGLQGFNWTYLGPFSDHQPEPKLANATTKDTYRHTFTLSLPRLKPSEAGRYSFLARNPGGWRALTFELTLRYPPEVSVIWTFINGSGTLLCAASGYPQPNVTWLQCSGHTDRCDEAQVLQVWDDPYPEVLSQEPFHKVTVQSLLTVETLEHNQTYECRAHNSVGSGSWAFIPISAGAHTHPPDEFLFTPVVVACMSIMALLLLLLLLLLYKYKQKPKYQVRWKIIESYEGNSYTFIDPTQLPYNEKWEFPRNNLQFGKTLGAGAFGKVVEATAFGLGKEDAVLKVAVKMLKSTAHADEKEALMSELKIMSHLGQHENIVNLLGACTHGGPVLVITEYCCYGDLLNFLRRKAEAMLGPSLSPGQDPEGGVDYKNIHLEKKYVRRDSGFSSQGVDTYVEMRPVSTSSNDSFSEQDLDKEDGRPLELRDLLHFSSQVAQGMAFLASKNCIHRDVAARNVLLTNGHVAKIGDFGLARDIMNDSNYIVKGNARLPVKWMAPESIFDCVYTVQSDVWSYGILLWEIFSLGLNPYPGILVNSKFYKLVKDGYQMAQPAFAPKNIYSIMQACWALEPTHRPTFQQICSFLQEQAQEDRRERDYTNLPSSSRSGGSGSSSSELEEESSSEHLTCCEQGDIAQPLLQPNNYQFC

- inhibition profile by KinMap (kinases): wider inhibition profile
- IC50 (CDK9/cyclinT1): 48 nM
- IC50 (CDK7/cyclin H): 3770 nM
- IC50 (CDK1/cyclin B): 515 nM
- IC50 (ARK 5/NUAK 1): 5 nM
- IC50 (CSF1R): 0.7 nM
- IC50 (CDK6/cyclin D1): 0.6 nM
- IC50 (CDK2/cyclin E): 69 nM
- IC50 (CDK17/cyclin Y): 14 nM
- IC50 (CDK16/cyclin Y): 25 nM
- IC50 (KIT): 8.5 nM
- IC50 (CDK4/cyclin D1): 2 nM
Compound: CN1CCN(c2ccc(Nc3ncc4cc(C#N)c(=O)n(C5CCCC5)c4n3)cc2)CC1 [Compound 1, 8-cyclopentyl-2-((4-(4-methylpiperazin-1-yl)phenyl)amino)-7-oxo-7,8-dihydropyrido[2,3-d]pyrimidine-6-carbonitrile]
- dose-limiting toxicities ([1]; 200 mg/day cohort, oral, daily in 28-day cycles): No dose-limiting toxicities
- severity of adverse events reported ([1]; predominantly gastrointestinal (GI) disorders): Grade 1 or 2
- neutropenia [2]: reduced Neutropenia; also recorded: less neutropenia
